The text below walks through data of publication PMC12196476, “New Nitrogen-, Oxygen-, and Sulfur-Containing Heterocyclic Compounds as Anti-Colon Cancer Agents: Synthesis, Multitargeted Evaluations, Molecular Docking Simulations and ADMET Predictions” (Pharmaceuticals, 2025).

One data set relates to LoVo cells. Briefly: Annexin V-FITC/PI apoptosis assay, LoVo. Format: cell-based, human. The settings on record: 30 µg/mL, 48 h, Figure 3B plot. How it is done:
Translocation of phosphatidylserine (PS) residues on the cell surface is an early apoptosis indicator, detectable through flow cytometric analysis and using double staining with propidium iodide (PI) dye and fluorescein isothiocyanate (FITC)-conjugated Annexin V (Annexin V-FITC). […]
μg/mL for 48 h. […]
S3.2.6. Annexin-V-FITC assay. […]
treatment with compound 3d. HCT-116 and LoVo cells were treated with vehicle (DMSO) and 3d […]
in Annexin-V binding buffer (BioVision Research Products, USA). The cells were then stained with Annexin V-FITC and propidium iodide (PI). Using the FITC signal detector (usually FL1) for […]
of stained cancerous cells were determined. […]

Data set [1] is described as follows: Cell viability, LDH release assay, normal HUVECs. The note with it: human, normal HUVECs, Mean % of viable cells ± SD, HUVEC. In general terms: Release of lactate dehydrogenase indicates damage to the cell membrane.

Usually viability stands for the share of living cells, or the viability signal relative to a control. As for `COc1cc(/C=N/c2ncnc3sc4c(c23)CCCC4)cc(OC)c1OC` [Compound 3d, (E)-N-(5,6,7,8-Tetrahydrobenzo[4,5]thieno[2,3-d]pyrimidin-4-yl)-1-(3,4,5-trimethoxyphenyl)methanimine], in the data set on LoVo cells, the “Necrotic population (Annexin-V−/PI+), LoVo” value is reported as 4.14%. For the same compound, the “Late apoptotic cells (both Annexin-V and PI positive), LoVo” value in the data set on LoVo cells (control 0.09%) was 9.92%. The “Early apoptotic cells (Annexin V-FITC positive and PI negative), LoVo” value with LoVo cells (control 0.44%) came out at 17.12%. For the same compound, the viability at 48 h, 100 µg/mL in data set [1] is about 90%.
